How the values were obtained:
[1] = Hepatocyte stability assay, dog; type: in vitro ADME; settings: male, Beagle, pooled hepatocytes, 37° C.
Protocol: (§1) Test and control compounds were incubated with hepatocytes at 37° C. Aliquots were removed at 6 timepoints over a one hour period. Samples were centrifuged and the supernatant fractions analysed for parent compound by mass spectrometry (LC-MS/MS).
(§2) The amount of compound remaining (expressed as %) was determined from the MS response in each sample relative to that in the T=0 samples, and used to determine the half-life and intrinsic clearance of the compound.

[2] = Hepatocyte stability assay, human; type: in vitro ADME, human (mixed gender); settings: both sexes, pooled hepatocytes, 37° C.
Protocol: as §1, §2

| hepatocyte CLint [1] | half-life ([1]; read-out: Dog T1/2) | hepatocyte CLint [2] | half-life ([2]; read-out: Human T1/2) | Structure (SMILES) |
| --- | --- | --- | --- | --- |
| 8.8 µL/min/1e6 cells | 3.08 h | 4.2 µL/min/1e6 cells | 5.58 h | NC(=O)c1nc(-c2c(Cl)cccc2Cl)oc1Nc1ccc(C(=O)N2CCS(=O)(=O)CC2)c(F)c1 [Compound (3)] |
| 29.8 µL/min/1e6 cells |  | 9 µL/min/1e6 cells |  | NC(=O)c1nc(-c2c(Cl)cccc2Cl)oc1Nc1ccc(C(=O)N2CCOCC2)cc1 [Comparative Compound B, 2-(2,6-dichloro-phenyl)-5-[4-(morpholine-4-carbonyl)-phenylamino]-oxazole-4-carboxylic acid amide, reference compound] |

Reference: patent US12187716B2, “TYK2 kinase inhibitors” (SAREUM LIMITED, priority 2018, dated 2025)
